# Results taken from US5081031A, “Synthetic polypeptide with type IV collagen activity” (Regents of the University of Minnesota, priority 1989, dated 1992).
# “Also recorded” adds a separate entry of the source.
# Assays:
# [1] = biological target: T1, binding of heparin to peptide Hep-II (Homo sapiens, UniProt P08572); assay: Heparin/peptide interaction specificity: competition of 3H-heparin binding to coated peptide Hep-II by glycosaminoglycans; settings: Hep-II coated from 500 μg/ml; 3H-heparin 50,000 cpm per well; 2 h 37° C.
# T1 construct: made in house; host or cells: chemical solid-phase (Merrifield) synthesis, no expression host
# Method: To check the specificity of the interaction between heparin and peptide Hep-II or whether the heparin structure was also critical to this interaction, heparin along with other sulfated glucosaminoglycans, dextran and chondroitin sulfate were used in competition experiments. A standard amount of 50 μg of a solution containing 500 μg/ml of peptide Hep-II was coated on 96-well plates as described above. Wells were treated for two hours with 2 mg/ml BSA in wash buffer. Then, a final volume of 50 μl was added to each well, containing a standard amount of […] (50,000 cpm per well) and various amounts of non-radioactive heparin, dextran or chondroitin sulfate. After incubating for two hours at 37° C., the wells were washed and radioactivity was counted as described above in Example 1.
# [2] = Heparin binding to plastic plates coated with peptide (3H-heparin direct binding)
# Method: The ability of the synthesized peptide Hep-II to interact with heparin when coated on 96-well plastic plates was evaluated. Stock solutions of peptide Hep-II at a concentration of 500 μg/ml were prepared in phosphate-buffered saline containing 0.02% sodium azide. Fifty μl from each concentration was coated on the 96-well plates and left to dry overnight at 28° C. Then, wells were treated for two hours with […] of 2 mg/ml BSA and 6 mM phosphate, 10 mM NaCl, 68 μM CaCl2, pH 6.8 (wash buffer) in order to minimize non-specific binding. Next 50 μl of ^3 H-heparin (10 μg/ml) was added at increasing concentrations (0 to 1400 ng/well) for two hours at 37° C. The wells were then washed three times with wash buffer containing 0.05% Triton X-100 and finally they were incubated for thirty minutes at 60° C. with 200 μl of 0.5 N NaOH and 1% SDS. The amount of ^3 H-heparin bound at each concentration was quantitated with a Beckman LS-3801 liquid scintillation counter. […] Comparison with data obtained in the past using exactly the same methodology indicate that peptide Hep-II is at least 10 times stronger than peptide Hep-I (see FIG. 3B) and about 100 times stronger than type IV collagen, when used in the same coating concentrations.
# [3] = system: binding of heparin to type IV collagen; assay: Inhibition of heparin binding to type IV collagen coated on plastic by peptide in solution; settings: peptide in solution 0.5 mg/ml to 5 μg/ml; 3H-heparin 500 ng per well; type IV collagen coated at 60 μg/ml
# Method: Peptide Hep-II in solution (and not absorbed to plastic), was screened for the ability to inhibit the binding of heparin to intact, native type IV collagen coated on plastic. This experimental approach avoids problems due to differential coating of peptides in heparin binding assays. Type IV collagen at 60 μg/ml in PBS was coated on 96-well plates, using 50 μl per well and dried overnight at 28° C. The wells were then treated for two hours with 2 mg/ml BSA in wash buffer (described above in Example 1). Peptide Hep-II at various dilutions ranging from 0.5 mg/ml to 5 μg/ml in PBS and CHAPS (cholamido-propyl-dimethyl-ammonio-propane-sulfonate) (a detergent used to avoid non-specific sticking) was co-incubated with a standard amount of ^3 H-heparin (500 ng per well […] final concentration) for two hours at 37° C. and the mixture was then transferred to the […] coated plate (50 μl ) and allowed to incubate for another two hours at 37° C. The wells were then washed and radioactivity was counted as described above. […] Peptide Hep-I is also shown in comparison.
# [4] = system: bovine aortic endothelial cells; assay: Direct adhesion of endothelial cells to peptide-coated plastic; assay type: cell-based; settings: 35S-labeled cells, 120 min. at 37° C.; increasing coating concentrations
# Method: Bovine aortic endothelial cells were isolated according to the following protocol. Aortas were obtained from a local slaughterhouse, washed in cold phosphate buffered saline (PBS) (136 mM NaCl, 2.6 mM KCl, 15.2 mM Na2 HPO4, pH 7.2) and processed within 2 hours. Crude collagenase (CLS III, 125-145 units per mg dry weight, Cooper Biomedical) was used at 2 mg/ml in Dulbecco's modified Eagle's medium (DMEM) (GIBCO). The vessel was clamped at the distal end, filled with the collagenase-PBS solution and digestion was carried out for 10 minutes. The lumenal contents were harvested, followed by the addition of fresh collagenase for two additional 10-minute periods. The enzyme-cell suspensions were added to an equal volume of DMEM containing 10% fetal bovine serum (FBS) to inhibit the enzyme and spun in a centrifuge at 400× g for 10 minutes. The resulting cell pellet was resuspended in DMEM containing 10% FBS, 100 units/ml of penicillin G, 100 μg/ml of streptomycin and 100 μg/ml of crude fibroblast growth factor. Cells are cultured in 75 cm^2 flasks in a humidified 5% CO2 atmosphere at 37° C. Cultures were fed twice a week with the same medium and cells were used in assays when approximately 75% confluent. […] At the end of the incubation period the wells were washed, bound radioactivity was solubilized by 1% SDS-0.5 N NaOH and quantitated in a Beckman scintillation counter. […]
# endothelial cells [5] = assay: Direct binding of 125I-labeled peptide Hep-II to cell surfaces; parameters: species or system bovine; settings: about 5,000 cells, 15 min. at 4° C., increasing concentrations
# Method: Endothelial cells were grown in culture as described in example 4 (supra). Cells used for this type of experiment were not labeled with radioactivity. Unlabeled cells were harvested by trypsinization (supra) on the day of the experiment. About 5,000 cells were mixed with 50 μl of a given concentration of peptide Hep-II in solution. Increasing concentrations of peptide Hep-II were used. The cells were incubated with the iodinated peptide for 15 min. at 4° C. and they were then pelleted by centrifugation. The cells were then resuspended and washed 3 times with DMEM containing 2 mg/ml BSA and 50 mM Hepes. Following the washes, the cells were pelleted for a final time in plastic tubes, the supernatant was decanted and the radioactivity of the pellet was quantitated in a Beckman scintillation counter. The binding of peptide Hep-II to endothelial cells is saturable (FIG. 8)----an indication of specificity. These experiments indicate that peptide Hep-II specifically interacts with the surfaces of endothelial cells.
# endothelial cells [6] = assay: Inhibition of the binding of 125I-labeled peptide Hep-II to the cell surface by excess unlabeled peptide; parameters: species or system bovine; settings: unlabeled peptide up to 500-fold excess; 15 min. at 4° C.
# Method: Endothelial cells were grown in culture as discussed in examples 4 and 5A (supra). On the day of the experiment, the cells were harvested by trypsinization (supra) and were co-incubated with 50 μl of peptide Hep-II. 50 μl a constant amount of ^125 I-labeled peptide Hep-II was mixed with increasing concentrations of unlabeled peptide Hep-II or a control peptide (maximal excess of unlabeled peptide: 500-fold over radiolabeled Hep-II). 50 μl of each concentration of unlabeled peptide which was mixed with radiolabeled Hep-II were then added to cells in suspension (5,000 cells per concentration of peptide). The cells were incubated with the mixture of unlabeled-radiolabeled peptide for 15 min. at 4° C. and they were then pelleted. The cells were subsequently washed and bound radioactivity was quantitated as described in example 4. […] These experiments provide confirmation that a specific interaction occur between endothelial-cell surfaces and peptide Hep-II.
# [7] = system: melanoma and endothelial cells; assay: Promotion of cell adhesion and spreading (summary statements); assay type: cell-based; settings: many cell types, including melanoma and endothelial cells
# [8] = reported from U.S. Pat. No. 4,876,332; cited from earlier work
# [9] = system: melanoma and endothelial cells; settings: reported from U.S. Pat. No. 4,876,332; cited from earlier work
substance,measurement,setting,value
chondroitin sulfate,competition for the binding of tritiated heparin to peptide Hep-II,[1],cannot mimic this effect except at extremely high concentrations
dextran,competition for the binding of tritiated heparin to peptide Hep-II,[1],substantially more dextran is needed to achieve similar levels of competition
heparin,competition for the binding of tritiated heparin to peptide Hep-II,[1],able to compete for the binding of tritiated heparin to peptide Hep-II at very low concentrations
"leu-ala-gly-ser-cys-leu-ala-arg-phe-ser-thr-met (LAGSCLARFSTM) [Hep-II, type IV collagen residues 49-60 from the carboxyl-terminus of the α2 chain of the NCl domain]",heparin binding to peptide coated on plastic,"[2]; peptide coated on 96-well plates from 500 μg/ml stock, 3H-heparin 0 to 1400 ng/well, 2 h 37° C.",extremely potent promoter of heparin-binding; also recorded: very potent binder of heparin
same,heparin binding strength relative to type IV collagen,"[2]; same coating concentrations, same methodology",about 100 times
same,inhibition of heparin binding to type IV collagen,[3],strong inhibitor of heparin binding to type IV collagen
same,adhesion of endothelial cells to coated substrate,[4],promotes substantial adhesion of endothelial cells even at very low plating concentrations
same,binding of 125I-labeled peptide to endothelial cells,endothelial cells [5],saturable
same,competition of the binding of radiolabeled Hep-II to the surface of endothelial cells,endothelial cells [6],can be competed only by an excess of unlabeled peptide Hep-II
same,promotion of cell adhesion/attachment and spreading,[7],potent promoter of cell adhesion and spreading; also recorded: potent promoter of cell attachment and spreading
"thr-ala-gly-ser-cys-leu-arg-lys-phe-ser-thr-met (TAGSCLRKFSTM) [Hep-I, peptide from the NCl domain of the α1(IV) chain, position 49-60 from the carboxyl terminus; U.S. Pat. No. 4,876,332]","heparin binding (earlier U.S. Pat. No. 4,876,332)",[8],ability to bind heparin
same,"promotion of cell adhesion (earlier U.S. Pat. No. 4,876,332)",[9],promote cell adhesion
